Common to all, as to type: in vivo
Data set [1] has as its system Plutella xylostella. The data set is described as follows: whole plant or invertebrate. Particulars: Plutella xylostella, read-out: Plutella xylostella Mortality (%) 500 ppm. Put shortly:
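Leaf immersion feeding test: 2nd-instar larvae (about 35 per vessel, 3 replicates) kept at 28° C. on 1.0 cm cabbage discs soaked 5 s in a 500 ppm solution with 0.05% Tween-80. Mortality after 24 h of exposure, calculated relative to live larvae in the Tween-80 control.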

For data set [2], the system named is Spodoptera exigua. The data set is described as follows: whole plant or invertebrate. The following applies: Spodoptera exigua, 24 h, read-out: Spodoptera exigua Mortality (%) 500 ppm. Put shortly:
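Leaf immersion feeding: second-instar larvae (about 35 per vessel, triplicate) kept at 28° C on discs treated with 500 ppm test solution in 0.05% Tween-80. Mortality at 24 h, calculated relative to surviving larvae in the solvent control.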

In data set [3] the test system is Aphis craccivora. The experiment in a line: whole plant or invertebrate. The following applies: Aphis craccivora, 24 h, read-out: Aphis craccivora Mortality (%) 500 ppm. Put shortly:
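Mortality scored 24 h after treatment as the reduction in live aphids versus a 0.05% Tween-80 control; three replicates, 23° C. Treatment was a 5 s immersion of wingless adults on bean sprouts in 500 ppm test solution containing 0.05% Tween-80, followed by air-drying.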

Data set [4] relates to Solenopsis invicta. The data set is described as follows: whole plant or invertebrate. Particulars: Solenopsis invicta, water test tube poison-feeding. Put shortly: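 Mortality (%) of Solenopsis invicta, computed against live counts in control tubes, was recorded 24 h and 72 h after treatment at 25 °C. Compound was offered by oral feeding in test tubes at 100 ppm, diluted from a 10 g/L DMSO stock into water with 5% honey and 0.05% Tween-80.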

Data set [5] deals with Bombyx mori L. The experiment in a line: Toxicity test on 2nd-instar larvae of Bombyx mori L., leaf immersion feeding method. The following applies: 1000 ppm, 24 hours. The procedure, abridged:
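Second-instar silkworm larvae (~35 per vessel, 3 replicates) fed mulberry leaves dipped 5 s in 1000 ppm compound (0.05% Tween-80; DMSO stock diluted), held at 25 °C. Deaths counted after 24 hours; mortality % corrected against Tween-80 control survivors.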

The subject of data set [6] is Apis cernan. The data set is described as follows: Toxicity test on adult worker bees of Apis cernan, small beaker method. The following applies: 500 ppm, 48 hours. The procedure, abridged:
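Same-size adult Apis cernan workers, collected the test morning, exposed in groups of 15 to cotton soaked with 500 ppm test liquid (small beaker method). Kept sealed in a dark climate box; live and dead bees counted after 48 h.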

The mark [7] stands for this setting: 24 h, read-out: Solenopsis invicta Mortality (%) 100 ppm 24 h, 100 ppm, 24 h.
Setting [8] is: 72 h, read-out: Solenopsis invicta Mortality (%) 100 ppm 72 h, 100 ppm, 72 h.

The values below come from patent publication US11401271B2, “Fused heterocyclic compound, pyrazole-ring-containing fused heterocyclic compound, agricultural composition containing thereof, and method of using the composition” (SOUTH CHINA AGRICULTURAL UNIVERSITY, priority 2017, dated 2022).

Read-outs that look alike come from different tables or passages of the source.

As to `N#CCC1(C(N)=O)Nc2c([S+]([O-])C(F)(F)F)c(C#N)nn2-c2c(Cl)cc(C(F)(F)F)cc21` (stereo not drawn) [Compound C32], the mortality at 500 ppm in data set [1] worked out at 100%; in data set [2] it was 90%; in data set [3], 95%. Further, the mortality at 100 ppm turned out to be 25% in data set [4] (setting [7]) and 100% in data set [4] (setting [8]). Also, the “Toxicity determination Bombyx mori L. Mortality (%)” value in data set [5] was 6%. In addition, the “Toxicity determination Apis cernan Mortality (%)” value in data set [6] was 9%.
For the compound `CSc1nn2c(c1C(=O)N1CCN(C)CC1)NC(F)(C(F)(F)F)c1ccccc1-2` (stereo not drawn) [Compound A30], the mortality at 500 ppm in data set [1], in data set [2] and in data set [3] was 100% in each case. The mortality at 100 ppm in data set [4] (setting [7]) was 40%; in data set [4] (setting [8]), 100%. Besides, the “Toxicity determination Bombyx mori L. Mortality (%)” value in data set [5] was 8%. The “Toxicity determination Apis cernan Mortality (%)” value in data set [6] was 8%.
As for `N#Cc1nn2c(c1[S+]([O-])C(F)(F)F)NC(CC(=O)O)(C(=O)O)c1cc(C(F)(F)F)cc(Cl)c1-2` (stereo not drawn) [Compound C36], the results for the mortality at 500 ppm in data set [1], in data set [2] and in data set [3] were 90%, 90% and 100%, respectively. In addition, the results for the mortality at 100 ppm in data set [4] (setting [7]) and in data set [4] (setting [8]) were 10% and 90%, respectively. For the same compound, the “Toxicity determination Bombyx mori L. Mortality (%)” value in data set [5] is 2%. Moreover, the “Toxicity determination Apis cernan Mortality (%)” value in data set [6] was 3%.
`C=CC1(CC(F)(F)F)Nc2c([S+]([O-])C(F)(F)F)c(C#N)nn2-c2c(Cl)cc(C(F)(F)F)cc21` (stereo not drawn) [Compound C14]: the mortality at 500 ppm in data set [1], in data set [2] and in data set [3] was 100% throughout. Moreover, the mortality at 100 ppm in data set [4] (setting [7]) is 30%; in data set [4] (setting [8]), 100%. In addition, the “Toxicity determination Bombyx mori L. Mortality (%)” value in data set [5] stood at 10%. The “Toxicity determination Apis cernan Mortality (%)” value in data set [6] is listed as 10%.
As to `CC(=O)N1c2c(Br)c(C#N)nn2-c2ccccc2C1(C)C` [Compound A4], the mortality at 500 ppm in data set [1] came out at 86%; in data set [2], 100%; in data set [3], 100%. Moreover, the figures for the mortality at 100 ppm in data set [4] (setting [7]) and in data set [4] (setting [8]) were 20% and 87%, respectively. The “Toxicity determination Bombyx mori L. Mortality (%)” value in data set [5] amounted to 10%. Further, the “Toxicity determination Apis cernan Mortality (%)” value in data set [6] amounted to 8%.
As for `CCc1nn2c(c1-c1cc(C)sc1C)NC(/C=C\C(=O)OC)(/C=C/C(=O)OC)c1cc(C(F)(F)F)cc(Cl)c1-2` (stereo not drawn) [Compound C64], the mortality at 500 ppm worked out at 92% in data set [1], 97% in data set [2] and 100% in data set [3]. Besides, the mortality at 100 ppm in data set [4] (setting [7]) was 17%; in data set [4] (setting [8]), 90%. In data set [5], the “Toxicity determination Bombyx mori L. Mortality (%)” value is recorded as 7%. In data set [6], the “Toxicity determination Apis cernan Mortality (%)” value was found to be 9%.
In the case of `C=CC1(CCl)Nc2c([S+](C)[O-])c(C#N)nn2-c2c(Cl)cc(C(F)(F)F)cc21` (stereo not drawn) [Compound C18], the mortality at 500 ppm in data set [1] was found to be 90%; in data set [2] it was 86%; in data set [3], 98%. In addition, the mortality at 100 ppm is 20% in data set [4] (setting [7]) and 70% in data set [4] (setting [8]). Also, the “Toxicity determination Bombyx mori L. Mortality (%)” value in data set [5] is reported as 6%. Besides, in data set [6], the “Toxicity determination Apis cernan Mortality (%)” value was 5%.
In the case of `CNC(=O)N1c2c(C#N)c(SC)nn2-c2ccccc2C1(F)C(F)(F)F` (stereo not drawn) [Compound A32], the mortality at 500 ppm in data set [1] amounted to 100%; in data set [2], 90%; in data set [3], 100%. The mortality at 100 ppm came out at 26% in data set [4] (setting [7]) and 93% in data set [4] (setting [8]). Further, in data set [5], the “Toxicity determination Bombyx mori L. Mortality (%)” value came out at 10%. Besides, the “Toxicity determination Apis cernan Mortality (%)” value in data set [6] is reported as 4%.
For `CC(=O)c1nn2c(c1[S+](C)[O-])NC(CC#N)(C(=O)O)c1cc(C(F)(F)F)cc(Cl)c1-2` (stereo not drawn) [Compound C43], the mortality at 500 ppm was 86% in data set [1], 89% in data set [2] and 95% in data set [3]. Moreover, the mortality at 100 ppm in data set [4] (setting [7]) is 18%; in data set [4] (setting [8]) it was 80%. In addition, in data set [5], the “Toxicity determination Bombyx mori L. Mortality (%)” value came out at 0%. The “Toxicity determination Apis cernan Mortality (%)” value in data set [6] was found to be 4%.
As for `C=CC(=O)Nc1ccc2c(c1)-n1cc(C#N)c(C#N)c1NC2(C#N)C#N` [Compound B8], the mortality at 500 ppm in data set [1], in data set [2] and in data set [3] was 100% throughout. For the same compound, the mortality at 100 ppm in data set [4] (setting [7]) is 45%; in data set [4] (setting [8]) it was 100%. For the same compound, the “Toxicity determination Bombyx mori L. Mortality (%)” value in data set [5] came to 5%. In addition, the “Toxicity determination Apis cernan Mortality (%)” value in data set [6] turned out to be 4%.
For `C=CC1(C=C)Nc2c(-c3cc(C)sc3C)c(CC)nn2-c2c(Cl)cc(C(F)(F)F)cc21` [Compound C62], the mortality at 500 ppm in data set [1] turned out to be 80%; in data set [2], 85%; in data set [3], 97%. Also, the mortality at 100 ppm in data set [4] (setting [7]) amounted to 27%; in data set [4] (setting [8]), 100%. For the same compound, in data set [5], the “Toxicity determination Bombyx mori L. Mortality (%)” value came to 10%. Moreover, the “Toxicity determination Apis cernan Mortality (%)” value in data set [6] was 11%.
`C=CC1(CCl)Nc2cc(C#N)nn2-c2c(Cl)cc(C(F)(F)F)cc21` (stereo not drawn) [Compound C1, 9-chloro-7-trifluoromethylphenyl-5-chloromethyl-5-vinyl-4,5-dihydropyrrole[1,5-α]quinazoline-2-cyano]: the mortality at 500 ppm was 89% in data set [1], 100% in data set [2] and 100% in data set [3]. Further, the mortality at 100 ppm amounted to 20% in data set [4] (setting [7]) and 100% in data set [4] (setting [8]). Moreover, the “Toxicity determination Bombyx mori L. Mortality (%)” value in data set [5] was 7%. For the same compound, the “Toxicity determination Apis cernan Mortality (%)” value in data set [6] is recorded as 7%.
In the case of `C=CC1(C(F)(F)F)Nc2c([S+]([O-])C(F)(F)F)c(C#N)nn2-c2c(Cl)cc(C(F)(F)F)cc21` (stereo not drawn) [Compound C15], the values for the mortality at 500 ppm in data set [1], in data set [2] and in data set [3] were 89%, 100% and 100%, respectively. The figures for the mortality at 100 ppm in data set [4] (setting [7]) and in data set [4] (setting [8]) were 29% and 90%, respectively. The “Toxicity determination Bombyx mori L. Mortality (%)” value in data set [5] was 8%. Further, the “Toxicity determination Apis cernan Mortality (%)” value in data set [6] worked out at 7%.
Regarding `N#Cc1nn2c(c1[S+]([O-])C(F)(F)F)NC(C(O)CO)c1cc(C(F)(F)F)cc(Cl)c1-2` (stereo not drawn) [Compound C51], the mortality at 500 ppm in data set [1] is 87%; in data set [2], 85%; in data set [3], 79%. Moreover, the mortality at 100 ppm in data set [4] (setting [7]) is 19%; in data set [4] (setting [8]) it was 86%. For the same compound, the “Toxicity determination Bombyx mori L. Mortality (%)” value in data set [5] is reported as 9%. For the same compound, in data set [6], the “Toxicity determination Apis cernan Mortality (%)” value was 5%.
In the case of `COC(=O)CC1(C(=O)OC)c2cc(C(F)(F)F)cc(Cl)c2-n2nc(C#N)c([S+]([O-])C(F)(F)F)c2N1C(C)=O` (stereo not drawn) [Compound C40], the mortality at 500 ppm came out at 100% in data set [1], 95% in data set [2] and 100% in data set [3]. Moreover, the mortality at 100 ppm in data set [4] (setting [7]) came out at 28%; in data set [4] (setting [8]) it was 90%. Also, the “Toxicity determination Bombyx mori L. Mortality (%)” value in data set [5] turned out to be 4%. In addition, in data set [6], the “Toxicity determination Apis cernan Mortality (%)” value worked out at 4%.
